Measured values taken from patent publication US10667517B2, “2-(Het)aryl-substituted fused heterocycle derivatives as pesticides” (BAYER CROPSCIENCE AKTIENGESELLSCHSAFT, priority 2015, dated 2020).

test: log P (neutral), HPLC on reversed-phase column (C 18), LC-MS neutral range; type: physicochemical; conditions: HPLC reversed-phase C 18, 55° C., pH 7.8, ammonium hydrogencarbonate/acetonitrile
Experimental: Temperature: 55° C. […] Called log P (neutral) in the table.

Row | log P (neutral) | SMILES
1 | 1.95 | O=C(CBr)c1nc(F)ccc1F [2-Bromo-1-(3,6-difluoropyridin-2-yl)ethanone]
2 | 4.01 | CCS(=O)(=O)c1ccc(-n2cc(Cl)cn2)nc1-c1nc2cc(C(F)(F)F)cnc2o1 [Example I-41]
3 | 2.19 | CCS(=O)(=O)c1ccc(-n2cncn2)nc1-c1cn2cnc(C(F)(F)F)cc2n1 [Example I-28]
4 | 4.17 | CCS(=O)(=O)c1ccc(-n2ccc(C(F)(F)F)n2)nc1-c1nc2cc(C(F)(F)F)cnc2o1 [Example I-42]
5 | 3.09 | CCS(=O)(=O)c1ccc(NC(=O)C(F)(F)F)nc1-c1nc2cc(C(F)(F)F)cnc2o1 [Example I-40]
6 | 2.21 | CCS(=O)(=O)c1ccc(-n2nccn2)nc1-c1nc2cc(C(F)(F)F)nnc2n1C [Example I-44]
7 | 2.08 | CCS(=O)(=O)c1ccc(-n2cncn2)nc1-c1nc2cc(C(F)(F)F)nnc2n1C [Example I-43]
8 | 2.58 | CCS(=O)(=O)c1ccc(-n2cccn2)nc1-c1cn2cnc(C(F)(F)F)cc2n1 [Example I-46]
9 | 2.27 | CCS(=O)(=O)c1ccc(NC2COC2)nc1-c1nc2cc(C(F)(F)F)cnc2n1C [Example I-26]
10 | 2.28 | CCS(=O)(=O)c1ccc(-n2nccn2)nc1-c1cn2cnc(C(F)(F)F)cc2n1 [Example I-27]

same assay, conditions: pH 7.8

Row | SMILES | log P (neutral)
11 | CCS(=O)(=O)c1ccc(-n2ccnc2)nc1-c1cn2cnc(C(F)(F)F)cc2n1 [Example I-45] | 2.07

same assay, conditions: reversed-phase HPLC column (C 18), pH 7.8, HPLC reversed-phase C 18, 55° C., pH 7.8, ammonium hydrogencarbonate/acetonitrile

Row | SMILES | chromatographic logP
12 | COC(=O)c1ccc(Cl)c(-c2nc3cc(C(F)(F)F)cnc3n2C)n1 [LXXVIII-1, Methyl 5-chloro-6-[3-methyl-6-(trifluoromethyl)-3H-imidazo[4,5-b]pyridin-2-yl]pyridine-2-carboxylate] | 2.7
13 | O=C(CBr)c1nc(F)ccc1F [2-Bromo-1-(3,6-difluoropyridin-2-yl)ethanone] | 1.93
14 | CCSc1ccc(C(=O)OC)nc1-c1nc2cc(C(F)(F)F)cnc2n1C [LXXIX-1, Methyl 5-(ethylsulphanyl)-6-[3-methyl-6-(trifluoromethyl)-3H-imidazo[4,5-b]pyridin-2-yl]pyridine-2-carboxylate] | 3.25
15 | CCS(=O)(=O)c1ccc(NC(C)=O)nc1-c1nc2cc(C(F)(F)F)cnc2o1 [Example I-19, N-{5-(Ethylsulphonyl)-6-[6-(trifluoromethyl) [1,3]oxazolo[5,4-b]pyridin-2-yl]pyridin-2-yl}acetamide] | 2.44
16 | CCS(=O)(=O)c1ccc(-n2cc(Cl)cn2)nc1-c1nc2cc(C(F)(F)F)nnc2n1C [Example I-35, 6-[6-(4-Chloropyrazol-1-yl)-3-ethylsulphonyl-2-pyridyl]-7-methyl-3-(trifluoromethyl)imidazo[4,5-c]pyridazine] | 3.38
17 | CCS(=O)(=O)c1ccc(C(=O)NC)nc1-c1nc2cc(C(F)(F)F)nnc2n1C [Example I-39, 5-(Ethylsulphonyl)-N-methyl-6-[7-methyl-3-(trifluoromethyl)-7H-imidazo[4,5-c]pyridazin-6-yl]pyridine-2-carboxamide] | 1.96
18 | CCS(=O)(=O)c1ccc(C(=O)NC)nc1-c1nc2cc(C(F)(F)F)cnc2n1C [Example I-34, 5-(Ethylsulphonyl)-N-methyl-6-[3-methyl-6-(trifluoromethyl)-3H-imidazo[4,5-b]pyridin-2-yl]pyridine-2-carboxamide] | 2.36
19 | CCS(=O)(=O)c1ccc(-n2cc(Cl)cn2)nc1-c1cn2cc(C(F)(F)F)ncc2n1 [Example I-18, 2-[6-(4-Chloro-1H-pyrazol-1-yl)-3-(ethylsulphonyl)pyridin-2-yl]-6-(trifluoromethyl)imidazo[1,2-a]pyrazine] | 3.44
20 | CCS(=O)(=O)c1ccc(S(=O)(=O)CC)c(-c2cn3cnc(C(F)(F)F)cc3n2)n1 [LXXIII-1, 2-[3,6-Bis(ethylsulphonyl)pyridin-2-yl]-7-(trifluoromethyl)imidazo[1,2-c]pyrimidine] | 2.28
21 | CON(C)C(=O)c1nc(F)ccc1F [3,6-Difluoro-N-methoxy-N-methylpyridine-2-carboxamide] | 1.05
22 | CCSc1ccc(Br)nc1C(=O)O [6-Bromo-3-(ethylsulphanyl)pyridine-2-carboxylic acid] | 1.79
23 | CC(=O)c1nc(F)ccc1F [1-(3,6-Difluoropyridin-2-yl)ethanone] | 1.24
24 | CCS(=O)(=O)c1ccc(S(=O)(=O)CC)c(-c2cn3cc(C(F)(F)F)ncc3n2)n1 [LXXIII-2, 2-[3,6-Bis(ethylsulphonyl)pyridin-2-yl]-6-(trifluoromethyl)imidazo[1,2-a]pyrazine] | 2.23

Next, values leading:

Row | chromatographic logP | SMILES
25 | 2.65 | Cn1c(-c2nc(Cl)ccc2Cl)nc2cc(C(F)(F)F)nnc21 [IX-7, 6-(3,6-Dichloro-2-pyridyl)-7-methyl-3-(trifluoromethyl)imidazo[4,5-c]pyridazine]
26 | 2.96 | CCS(=O)(=O)c1ccc(F)nc1-c1nc2cc(C(F)(F)F)ccc2n1C [XIII-1, 2-[3-(Ethylsulphonyl)-6-fluoropyridin-2-yl]-1-methyl-5-(trifluoromethyl)-1H-benzimidazole]
27 | 2.02 | Fc1ccc(F)c(-c2cn3cnc(C(F)(F)F)cc3n2)n1 [IX-5, 2-(3,6-Difluoropyridin-2-yl)-7-(trifluoromethyl)imidazo[1,2-c]pyrimidine]
28 | 2.72 | Cn1c(-c2nc(F)ccc2F)nc2cc(C(F)(F)F)cnc21 [IX-2, 2-(3,6-Difluoropyridin-2-yl)-3-methyl-6-(trifluoromethyl)-3H-imidazo[4,5-b]pyridine]
29 | 2.61 | CCS(=O)(=O)c1ccc(C(=O)OC)nc1-c1nc2cc(C(F)(F)F)cnc2n1C [LXXX-1, Methyl 5-(ethylsulphonyl)-6-[3-methyl-6-(trifluoromethyl)-3H-imidazo[4,5-b]pyridin-2-yl]pyridine-2-carboxylate]
30 | 3.2 | CCS(=O)(=O)c1ccc(Cl)nc1-c1nc2cc3c(cc2n1C)OC(F)(F)O3 [XIII-3, 6-(6-Chloro-3-ethylsulphonyl-2-pyridyl)-2,2-difluoro-7-methyl-[1,3]dioxolo[4,5-f]benzimidazole]
31 | 2.6 | CCS(=O)(=O)c1ccc(Cl)nc1-c1nc2cc(C(F)(F)F)nnc2n1C [XIII-5, 6-(6-Chloro-3-ethylsulphonyl-2-pyridyl)-7-methyl-3-(trifluoromethyl)imidazo[4,5-c]pyridazine]
32 | 3.44 | CCSc1ccc(F)nc1-c1nc2cc(C(F)(F)F)ccc2n1C [XI-1, 2-[3-(Ethylsulphanyl)-6-fluoropyridin-2-yl]-1-methyl-5-(trifluoromethyl)-1H-benzimidazole]
33 | 3.28 | CCSc1ccc(Cl)nc1-c1nc2cc(C(F)(F)F)nnc2n1C [XI-6, 6-(6-Chloro-3-ethylsulphanyl-2-pyridyl)-7-methyl-3-(trifluoromethyl)imidazo[4,5-c]pyridazine]
34 | 4 | CCSc1ccc(SCC)c(-c2cn3cc(C(F)(F)F)ncc3n2)n1 [LXXI-1, 2-[3,6-Bis(ethylsulphanyl)pyridin-2-yl]-6-(trifluoromethyl)imidazo[1,2-a]pyrazine]
35 | 3.22 | Cn1c(-c2nc(Cl)ccc2Cl)nc2cc3c(cc21)OC(F)(F)O3 [IX-3, 6-(3,6-Dichloro-2-pyridyl)-2,2-difluoro-7-methyl-[1,3]dioxolo[4,5-f]benzimidazole]
36 | 5.27 | CCSc1ccc(Br)nc1C(=O)Nc1cc(C(F)(F)F)cnc1Cl [LXIX-1, 6-Bromo-N-[2-chloro-5-(trifluoromethyl)pyridin-3-yl]-3-(ethylsulphanyl)pyridine-2-carboxamide]
37 | 2.78 | CCSc1ccc(F)nc1-c1cn2cnc(C(F)(F)F)cc2n1 [XI-4, 2-[3-(Ethylsulphanyl)-6-fluoropyridin-2-yl]-7-(trifluoromethyl)imidazo[1,2-c]pyrimidine]
38 | 2.83 | Cn1c(-c2nc(F)ccc2F)nc2cc(C(F)(F)F)ccc21 [IX-1, 2-(3,6-Difluoropyridin-2-yl)-1-methyl-5-(trifluoromethyl)-1H-benzimidazole]
39 | 2.8 | CCS(=O)(=O)c1ccc(F)nc1-c1nc2cc(C(F)(F)F)cnc2n1C [XIII-2, 2-[3-(Ethylsulphonyl)-6-fluoropyridin-2-yl]-3-methyl-6-(trifluoromethyl)-3H-imidazo[4,5-b]pyridine]
40 | 4.16 | CCSc1ccc(Br)nc1-c1nc2cc(C(F)(F)F)cnc2o1 [XI-5, 2-[6-Bromo-3-(ethylsulphanyl)pyridin-2-yl]-6-(trifluoromethyl)[1,3]oxazolo[5,4-b]pyridine]
41 | 3.45 | CCSc1ccc(F)nc1-c1nc2cc(C(F)(F)F)cnc2n1C [XI-2, 2-[3-(Ethylsulphanyl)-6-fluoropyridin-2-yl]-3-methyl-6-(trifluoromethyl)-3H-imidazo[4,5-b]pyridine]
42 | 3.8 | CCSc1ccc(Cl)nc1-c1nc2cc3c(cc2n1C)OC(F)(F)O3 [XI-3, 6-(6-Chloro-3-ethylsulphanyl-2-pyridyl)-2,2-difluoro-7-methyl-[1,3]dioxolo[4,5-f]benzimidazole]
43 | 3.2 | FC1(F)Oc2cc3nc(-c4nc(Cl)ccc4Cl)[nH]c3cc2O1 [IX-4, 6-(3,6-Dichloro-2-pyridyl)-2,2-difluoro-5H-[1,3]dioxolo[4,5-f]benzimidazole]
44 | 2.19 | CCS(=O)(=O)c1ccc(C(=O)OC)nc1-c1nc2cc(C(F)(F)F)nnc2n1C [LXXX-2, Methyl 5-(ethylsulphonyl)-6-[7-methyl-3-(trifluoromethyl)-7H-imidazo[4,5-c]pyridazin-6-yl]pyridine-2-carboxylate]
